The subject of data set [1] is Staphylococcus aureus. Kind of data set: Antibacterial activity against methicillin-sensitive Staphylococcus aureus 209P after 24 hrs by liquid dilution method. Format: functional.
For data set [2], the system named is Staphylococcus aureus. The experiment in a line: Antibacterial activity against methicillin-resistant Staphylococcus aureus isolate OM481 after 24 hrs by liquid dilution method. The class given is functional. Conditions: isolate OM481, 24 h.
Data set [3] relates to Staphylococcus aureus. The experiment in a line: Antibacterial activity against methicillin-resistant Staphylococcus aureus isolate OM505 after 24 hrs by liquid dilution method. Format: functional. Conditions: isolate OM505, 24 h.
Data set [4] deals with Pseudomonas aeruginosa. Kind of data set: Antibacterial activity against Pseudomonas aeruginosa PAO1 after 24 hrs by liquid dilution method. The class given is functional.
Data set [5] has as its system Pseudomonas aeruginosa. Kind of data set: Antibacterial activity against Pseudomonas aeruginosa PAO1 assessed as inhibition of green pigment formation. Format: functional.
Data set [6] deals with T1, Albumin (Bos taurus, UniProt P02769). The experiment in a line: Binding affinity to bovine serum albumin assessed as retention time for compound-protein complex formation at 0.5 mg/ml by size exclusion chromatographic method (reference value: 16 mins). The class given is ADME. Conditions: cattle. On the technique in general: SEC sorts molecules by how far they enter the pores of the column.

Data set [7] has as its target T1, Albumin. The experiment in a line: Binding affinity to bovine serum albumin by SDS-PAGE analysis. The class given is ADME. Conditions: cattle, isolated protein.
Data set [8] concerns Staphylococcus aureus. The experiment in a line: Antibacterial activity against methicillin-sensitive Staphylococcus aureus 209P. Format: functional.
For data set [9], the system named is Staphylococcus aureus. The experiment in a line: Antibacterial activity against methicillin-resistant Staphylococcus aureus isolate OM481. The class given is functional.
Data set [10] has as its system Staphylococcus aureus. Kind of data set: Antibacterial activity against methicillin-resistant Staphylococcus aureus isolate OM505. Format: functional.

Converted amounts (≈) assume the structure as drawn. The source made the active and inactive calls. The calls are words filed in the database; no cut-off is given here.

Data on ten molecules can be found in ChEMBL document CHEMBL4130481, “Structures and Antibacterial Properties of Isorugosins H-J, Oligomeric Ellagitannins from Liquidambar formosana with Characteristic Bridging Groups between Sugar Moieties” (J Nat Prod, 2017).

T1 sequence (P02769 whole entry): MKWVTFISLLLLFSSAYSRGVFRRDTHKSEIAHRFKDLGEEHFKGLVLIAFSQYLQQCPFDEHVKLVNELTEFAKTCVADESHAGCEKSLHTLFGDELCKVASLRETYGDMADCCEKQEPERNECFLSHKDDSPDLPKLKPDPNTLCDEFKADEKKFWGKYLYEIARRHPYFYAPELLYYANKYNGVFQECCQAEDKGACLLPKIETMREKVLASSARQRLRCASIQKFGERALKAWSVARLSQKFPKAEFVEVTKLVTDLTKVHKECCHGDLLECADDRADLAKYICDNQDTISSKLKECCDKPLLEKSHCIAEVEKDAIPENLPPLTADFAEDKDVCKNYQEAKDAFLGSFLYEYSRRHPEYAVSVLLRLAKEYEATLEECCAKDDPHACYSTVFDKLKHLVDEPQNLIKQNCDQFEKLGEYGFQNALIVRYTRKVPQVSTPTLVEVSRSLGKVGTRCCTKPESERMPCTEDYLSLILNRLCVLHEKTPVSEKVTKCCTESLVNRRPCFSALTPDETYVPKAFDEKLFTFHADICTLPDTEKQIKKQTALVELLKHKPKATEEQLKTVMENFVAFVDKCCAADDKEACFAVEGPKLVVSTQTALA

The MIC is the lowest concentration that inhibits growth of the organism. As for `Cc1onc(-c2ccccc2)c1C(=O)N[C@@H]1C(=O)N2[C@@H]1SC(C)(C)[C@@H]2C(=O)O` [OXACILLIN], the MIC is under 0.6 µM with Staphylococcus aureus [1], 638 µM (≈ 256 µg/mL) in the data set on Staphylococcus aureus [2] and 319 µM (≈ 128 µg/mL) in the data set with Staphylococcus aureus [3].
On to `O=C(O[C@@H]1O[C@@H]2COC(=O)c3cc(O)c(O)c(O)c3-c3c(cc(Oc4c(C(=O)O[C@@H]5O[C@@H]6COC(=O)c7cc(O)c(O)c(O)c7-c7c(cc(Oc8c(C(=O)O[C@@H]9O[C@@H]%10COC(=O)c%11cc(O)c(O)c(O)c%11-c%11c(cc(O)c(O)c%11O)C(=O)O[C@H]%10[C@H](OC(=O)c%10cc(O)c(O)c(O)c%10)[C@H]9OC(=O)c9cc(O)c(O)c(O)c9)cc(O)c(O)c8O)c(O)c7O)C(=O)O[C@H]6[C@H](OC(=O)c6cc(O)c(O)c(O)c6)[C@H]5OC(=O)c5cc(O)c(O)c(O)c5)cc(O)c(O)c4O)c(O)c3O)C(=O)O[C@H]2[C@H](OC(=O)c2cc(O)c(O)c(O)c2)[C@H]1OC(=O)c1cc(O)c(O)c(O)c1)c1cc(O)c(O)c(O)c1`, for which the MIC with Staphylococcus aureus [1] was 23 µM (≈ 64.7 µg/mL); in the data set with Staphylococcus aureus [2], 91 µM (≈ 256 µg/mL); with Staphylococcus aureus [3], 91 µM (≈ 256 µg/mL); against Pseudomonas aeruginosa [4] (PAO1, 24 h) it was over 364 µM; in the data set on Pseudomonas aeruginosa [5] it was 23 µM (≈ 64.7 µg/mL). Moreover, the Retention time on Albumin [6] lay within 9 to 12 min. The result on Albumin [7] was Active.
In the data set with Pseudomonas aeruginosa [4] (PAO1, 24 h), `NCC[C@H](O)C(=O)N[C@@H]1C[C@H](N)[C@@H](O[C@H]2O[C@H](CN)[C@@H](O)[C@H](O)[C@H]2O)[C@H](O)[C@H]1O[C@H]1O[C@H](CO)[C@@H](O)[C@H](N)[C@H]1O` [AMIKACIN] showed an MIC of 14 µM (≈ 8.2 µg/mL).
For GENTAMICIN, in the data set on Pseudomonas aeruginosa [4], inhibition of growth (MIC) required 17 µM.
For `O=C1OC[C@H]2O[C@H](O)[C@@H]3OC(=O)c4cc(O)c(O)c(O)c4-c4c(cc(O)c(O)c4O)C(=O)O[C@H]3[C@@H]2OC(=O)c2cc(O)c(O)c(O)c2-c2c1cc(O)c(O)c2O`, the inhibition entry in the data set with Pseudomonas aeruginosa [5] is “Active”.
For the molecule `O=C(OC[C@H]1O[C@@H](OC(=O)c2cc(O)c(O)c(O)c2)[C@H](OC(=O)c2cc(O)c(O)c(O)c2)[C@@H](OC(=O)c2cc(O)c(O)c(O)c2)[C@@H]1OC(=O)c1cc(O)c(O)c(O)c1)c1cc(O)c(O)c(O)c1` [PENTAGALLOYL GLUCOSE], the inhibition entry in the data set on Pseudomonas aeruginosa [5] was “Active”. In addition, the MIC against Staphylococcus aureus [8], against Staphylococcus aureus [9] and against Staphylococcus aureus [10] was 68 µM (≈ 64 µg/mL) throughout.
Regarding `O=C(O[C@H]1[C@@H]2OC(=O)c3cc(Oc4c(C(=O)O)cc(O)c(O)c4O)c(O)c(O)c3-c3c(cc(O)c(O)c3O)C(=O)OC[C@H]2OC(O)[C@@H]1OC(=O)c1cc(O)c(O)c(O)c1)c1cc(O)c(O)c(O)c1` (some centres undefined), the MIC in the data set on Staphylococcus aureus [1] is 67 µM (≈ 64 µg/mL); against Staphylococcus aureus [2], 34 µM (≈ 32.5 µg/mL); in the data set with Staphylococcus aureus [3], 67 µM (≈ 64 µg/mL); against Pseudomonas aeruginosa [4] (PAO1, 24 h), over 1070 µM; in the data set on Pseudomonas aeruginosa [5], 34 µM (≈ 32.5 µg/mL). Also, the Retention time at Albumin [6] is 9 to 12 min. At Albumin [7], the outcome was Active.
Regarding `O=C(O[C@@H]1O[C@@H]2COC(=O)c3cc(O)c(O)c(O)c3-c3c(cc(Oc4c(C(=O)O)cc(O)c(O)c4O)c(O)c3O)C(=O)O[C@H]2[C@H](OC(=O)c2cc(O)c(O)c(O)c2)[C@H]1OC(=O)c1cc(O)c(O)c(O)c1)c1cc(O)c(O)c(O)c1`, the MIC with Staphylococcus aureus [1] is 58 µM (≈ 64.2 µg/mL); against Staphylococcus aureus [2], 29 µM (≈ 32.1 µg/mL); with Staphylococcus aureus [3] it was 58 µM (≈ 64.2 µg/mL); against Pseudomonas aeruginosa [4] (PAO1, 24 h) it was over 926 µM; in the data set on Pseudomonas aeruginosa [5] it was 29 µM (≈ 32.1 µg/mL). For the same molecule, the Retention time on Albumin [6] fell in the range of 9 to 12 min. Also, the outcome on Albumin [7] was Active.
For `O=C(O[C@@H]1O[C@@H]2COC(=O)c3cc(O)c(O)c(O)c3-c3c(cc(Oc4c(C(=O)O[C@@H]5O[C@@H]6COC(=O)c7cc(O)c(O)c(O)c7-c7c(cc(O)c(O)c7O)C(=O)O[C@H]6[C@H](OC(=O)c6cc(O)c(O)c(O)c6)[C@H]5OC(=O)c5cc(O)c(O)c(O)c5)cc(O)c(O)c4O)c(O)c3O)C(=O)O[C@H]2[C@H](OC(=O)c2cc(O)c(O)c(O)c2)[C@H]1OC(=O)c1cc(O)c(O)c(O)c1)c1cc(O)c(O)c(O)c1`, the MIC was 34 µM (≈ 63.8 µg/mL) in the data set on Staphylococcus aureus [1]; 34 µM (≈ 63.8 µg/mL) in the data set on Staphylococcus aureus [2]; 68 µM (≈ 128 µg/mL) against Staphylococcus aureus [3]; over 546 µM against Pseudomonas aeruginosa [4] (PAO1, 24 h); 34 µM (≈ 63.8 µg/mL) in the data set on Pseudomonas aeruginosa [5]. In addition, the Retention time at Albumin [6] is 9 to 12 min. Besides, the result at Albumin [7] was Active.
For `O=C(O[C@@H]1COC(=O)c2cc(O)c(O)c(O)c2-c2c(cc(O)c(O)c2O)C(=O)O[C@H]1[C@@H]1OC(=O)c2cc(O)c(O)c(O)c2-c2c(O)c(O)c(O)c3c2C(=O)O[C@H]1[C@H]3O)c1cc(O)c(O)c(O)c1`, in the data set with Pseudomonas aeruginosa [5], the inhibition result is “Active”.
